Assays:
[1] = In vivo hepatic targeting of GalNac-siRNA (siRNA concentration of hepatic tissue by qPCR); design: species or system Balb/c-nu mice; details: 100 mg/kg, tail vein injection once, livers 6 hours after administration; compared with negative control siRNA not linked to GalNAc
Experimental: Balb/c-nu mice, male, body weight ranged 18-22 g, were randomly divided into 3 groups, 5 mice/group, which respectively were blank control group, negative control group and targeting group, the administration dose was 100 mg/kg. The negative control group was administered by tail vein injection of negative control test substance (NC, Ribobio, siM200922112438) once, the targeting group was administered by tail vein injection of the obtained G1-12 test substance of example 6 once, the blank control group was administered an equal volume of saline. All animals' livers were immediately placed in liquid nitrogen after 6 hours of administration, then were saved at −80° C., the siRNA pharmaceutical concentration of hepatic tissue was tested by qPCR method. • 1. Drawing the standard curve. […] The average Ct values of each standard points were calculated based on the obtained Ct values, the log value of standard point concentration was abscissa, the obtained average Ct value was ordinate, the standard curve was drawn, the regression equation and R^2 were calculated, R^2>0.99. • 2. […] The mice liver samples were ground to powder by liquid nitrogen grinding method, and the weight of powder was measured. […] The sample Ct values were substituted into the regression equation of the standard curve, the siRNA content of samples was calculated.

[2] = biological target: T1, Hepatocyte ASGPR receptor (Homo sapiens, UniProt P07306); experiment: Binding affinity test with hepatocyte ASGPR receptor (Cy5 flow cytometry, binding saturation curve)
T1 construct: endogenous in cells
T1 sequence (P07306 1-291): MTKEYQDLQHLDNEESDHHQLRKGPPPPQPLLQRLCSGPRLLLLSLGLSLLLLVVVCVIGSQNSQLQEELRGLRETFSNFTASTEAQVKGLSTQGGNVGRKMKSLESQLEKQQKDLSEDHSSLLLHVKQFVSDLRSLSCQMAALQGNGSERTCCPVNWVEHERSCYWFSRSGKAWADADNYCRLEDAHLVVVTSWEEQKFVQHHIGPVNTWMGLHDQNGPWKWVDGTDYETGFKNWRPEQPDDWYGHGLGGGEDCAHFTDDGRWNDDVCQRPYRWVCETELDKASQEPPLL
T1 sequence (P07307 1-311 partner): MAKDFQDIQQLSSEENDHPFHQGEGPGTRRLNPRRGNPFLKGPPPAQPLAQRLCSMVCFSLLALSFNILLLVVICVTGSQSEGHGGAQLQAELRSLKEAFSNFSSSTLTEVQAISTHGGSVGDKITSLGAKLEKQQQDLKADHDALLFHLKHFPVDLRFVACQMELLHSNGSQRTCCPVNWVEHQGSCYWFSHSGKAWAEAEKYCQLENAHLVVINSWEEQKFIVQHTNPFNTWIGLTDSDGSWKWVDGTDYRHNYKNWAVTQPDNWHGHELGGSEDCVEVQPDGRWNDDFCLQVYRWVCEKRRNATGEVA
Experimental: Embodiment 1: Binding Affinity Test with Hepatocyte ASGPR Receptor
The compound G1, G4, G5 obtained from the examples 1, 4, 5, bound to the above mentioned siRNA respectively to form conjugates which were shown in Table 1.
G1-12, G4-12, G5-12 (1 uM) were diluted respectively in a gradient according to the following Table 2.
The cell concentration was diluted by DMEM culture medium with 2% FBS to 4*10^5 cells/mL.
200 μL cells of each sample and 200 μL siRNA were mixed uniformly, 200 μL cells of the blank control group and 200 μL culture medium were mixed uniformly, and were added in 3 wells of 96-well plate with U-shaped bottom, 100 μL each well. Samples of each concentration of all siRNA were placed in the ice box after sampling, and were placed in decolorization shaker and incubated in dark for 2 hours.
50 g of 96-well plate with U-shaped bottom was centrifuged for 2 minutes at 4° C. 80 μL supernatant was aspirated and discarded by pipette, 10 μg/mL propidium iodide was prepared by using of PBS with 2% FBS, 100 μL PI reagent was added in each well and was stained for 15 minutes. After staining, 50 g of 96-well plate with U-shaped bottom was centrifuged for 2 minutes at 4° C. After washed by PBS with 2% FBS for twice, 100 μL PBS with 2% FBS was added for resuspension, flow cytometer was used to test and count the average Cy5 fluorescence intensity of live cell population.

## G1-12: G1 bound to 5' end of SEQ ID NO: 1, paired with 5'-Cy5 SEQ ID NO: 2; structure Z1 (sense GUAUGUUGCCCGUUUGUCC; antisense GGACAAACGGGCAACAUACCU; G1 ligand 5'; Cy5 label; modified_base join(1,5,8,12,16) OTHER; deoxyribonucleotide modification; modified_base 3 OTHER; thiophosphorylated skeleton modification and deoxyribonucleotide modification; modified_base join(4,6,7,9,10,11,13,14,15,17) OTHER; 2'-fluoro modification; modified_base join(2,18,19) OTHER; thiophosphorylated skeleton modification and 2'-fluoro modification; modified_base join(1,5,7,9,11,13,15,17) OTHER; 2'-O-methyl modification; modified_base join(3,19,20,21) OTHER; thiophosphorylated skeleton modification and 2'-O-methyl modification; modified_base join(2,4) OTHER; …) [Compound G1-12]
[1]
  distribution in mice liver (siRNA content of hepatic tissue): obviously increased
[2]; average Cy5 fluorescence intensity of live cells minus blank, one site binding (hyperbola) fit, 0.9-100 nM, 2 hours on ice
  Bmax: 153854
[2]; one site binding (hyperbola) fit of Cy5 fluorescence, 0.9-100 nM, 2 hours on ice, read-out: Kd (dissociation equilibrium constant)
  Kd: 1.98 nM
[2]; statement in words from Table 3
  binding affinity with ASGPR receptor: reach a higher level
